From patent publication US11633380B2, “Use of trans-[tetrachlorobis(1H-indazole)ruthenate(III)] for the treatment of cancer” (Bold Therapeutics, Inc., priority 2016, dated 2023)

How the values were obtained:
LNCaP = test: Mitochondrial potential, JC-1 flow cytometry, LNCaP (Example 9); format: cell-based, human; settings: prostate (LNCaP), 30-200 uM IT-139, 24 h
Procedure: (§1) Example 9. All human primary and metastatic cell lines were maintained as described by ATCC. All cell lines (HCT116, HT-29, LNCaP, A549 and A375) were seeded in a 6 well plate 24 hours prior to treatment with IT-139 alone. All cell lines were treated with 30 uM, 50 uM, 100 uM and 200 uM with the following exceptions: treatment with 30 uM and 200 uM were omitted for HCT116 and HT29 cell lines respectively. After 24 h incubation with the drug, cells were trypsinized and re-suspended in warm PBS and stained with the JC-1 dye for 30 min at 37 C in the dark. The cells were then washed and re-suspended in warm PBS. The fluorescence of the JC-1 dye was measured by flow cytometry analysis by exciting the dye at 488 nm and detecting the JC-1 monomer through its emission at 530 nm with aggregates of JC-1 being measured at 580 nm. All cell lines treated with Antimycin A at 50 uM as positive control.

HCT116 = test: Mitochondrial potential, JC-1 flow cytometry, HCT116 (Example 9); format: cell-based, human; settings: HCT116, 50 μM IT-139, 24 h
Procedure: as §1

GRP78 mRNA [1] = test: Northern blot of GRP78 mRNA in LnCaP-FGC cells (Example 8); format: cell-based, human; settings: untreated or 300 nM thapsigargin, indicated concentrations of IT-139
Procedure: Example 8. Prostate cancer LnCaP-FGC cells were untreated (DMSO only control) or treated with 300 nM thapsigargin (Tg). Cells were co-incubated with the indicated concentrations of IT-139 and Northern blot analysis was performed on cell lysates. β-actin is the loading control.

[2] = tested on: normal peripheral blood mononuclear cells (PBMCs); test: Cell viability, MiaPaca2 cells co-cultured with normal PBMCs (Example 10); format: cell-based; settings: IT-139 50, 100 and 200 μM, 24 h, co-culture with normal PBMCs
Procedure: Example 10. […] cancer cell line, MiaPaca2, was maintained as described by ATCC. […] […] PBMCs were activated using 6000 IU of IL-2 for 24 h.

GRP78 [3] = test: GRP78 expression in ASPC20 cells, order of dosing thapsigargin and IT-139 (Example 11); format: cell-based; settings: 30 hours
Procedure: FIG. 12 depicts expression of GRP78 protein levels treated with DMSO; 150 μM IT-139; 1 μM Thapsigargin (Tg); simultaneous treatment of 150 μM IT-139 and 1 μM Tg; 1 μM Tg treated for 6 hours followed by 150 μM IT-139 for 24 hours; and […] IT-139 for 24 hours followed by […] Tg treatment for 24 hours for lanes 1-5, respectively. Lanes 6-12 are the same treatments incubated for a further 24 hours.
Example 11. […] In vitro ASPC20 cells are treated for 48 hours with DMSO (control), 150 μM IT-139, 5 μM gemcitabine, simultaneous 150 μM IT-139 and 5 μM gemcitabine, 5 μM gemcitabine for 24 hours followed by 150 μM IT-139, or 150 μM IT-139 followed by 24 hrs 5 μM gemcitabine. Cells are harvested and counted by trypan blue to calculate the number of dead cells versus viable cells. […] PANC-1 cells are treated in vitro for 48 hours with DMSO (control), 150 μM IT-139, 5 μM gemcitabine, simultaneous 150 μM IT-139 and 5 μM gemcitabine, 5 μM gemcitabine for 24 hours followed by 150 μM IT-139, and 150 μM IT-139 followed by 24 hours 5 μM gemcitabine.

GRP78 [4] = test: Immunohistochemical analysis of GRP78 in HT-29 xenograft tumors (Example 6); format: in vivo; settings: IT-139 30 mg/kg (q4d), versus strong immunostaining in saline treated tumors
Procedure: Example 6. Immunohistochemical analysis was performed to analyze the expression of GRP78 in HT-29 xenograft tumors treated with IT-139 at 30 mg/kg (q4d) in comparison to saline treated tumors.

[5] = tested on: UPR (XBP-1 spliced form, ATF6, eIF2a); test: Effect on other arms of the UPR; format: cell-based
A375 = test: Mitochondrial potential, JC-1 flow cytometry, A375 (Example 9); format: cell-based, human; settings: melanoma (A375), 30-200 uM IT-139, 24 h
Procedure: as §1

CT26 cells = test: CT26 subcutaneous syngeneic tumor model (Example 3); format: in vivo, mice; settings: twice weekly, four doses; IT-139 30 mg/kg intravenously, RPM1-14 5 mg/kg intraperitoneally; through day 18
Procedure: Example 3. CT26 cells (1 million) were subcutaneously implanted in immunocompetent mice and allowed to grow until a palpable tumor was established (day 3). Groups of four mice per group were treated twice weekly with four total doses of either 1) saline, 2) IT-139 alone (KP1339, 30 mg/kg), 3) RPM1-14 (PD-1 antibody, 5 mg/kg), or 4) RPM1-14 and IT-139 (5 mg/kg and 30 mg/kg, respectively). IT-139 was administered intravenously and RPM1-14 was administered intraperitoneally. Administrations were made on the same day. Tumor volume was measured through day 18.

GRP78 [6] = test: GRP78 protein level by western blot in cell lines, unstressed or thapsigargin-stressed (Example 1); format: cell-based, human; settings: IT-139 200 μM, 16 hours
Procedure: Example 1. All human primary and metastatic cell lines were maintained as described by ATCC. Cells were seeded in a 6 well plate prior to treatment with media alone (control), IT-139 (200 μM) alone, thapsigargin alone (300 nM, to induce cell stress) or IT-139 plus thapsigargin. Cell lysates were collected at 16 hours and were analyzed by western blot for anti-GRP78 antibody and normalized by GAPDH.

GRP78 mRNA [7] = test: Quantitative real-time PCR of GRP78 transcripts in cell lines (Example 2); format: cell-based, human; settings: IT-139 200 μM, 24 hours
Procedure: Example 2. All human primary and metastatic cell lines were maintained as described by ATCC. Cells were seeded in a 6 well plate prior to treatment with media alone (control), IT-139 (200 μM) alone, thapsigargin alone (300 nM, to induce cell stress) or IT-139 plus thapsigargin. Cell lysates were collected at 24 hours and total RNA was extracted. Quantitative real-time PCR analysis of GRP78 transcripts normalized to GAPDH.

MiaPaca2 cells = test: Cell death of MiaPaca2 cells co-cultured with IL-2 activated PBMCs (Example 10); format: cell-based; settings: pre-treated with IT-139 100 μM, co-cultured with PBMCs activated with 6000 IU IL-2 for 24 h
Procedure: Example 10. […] cancer cell line, MiaPaca2, was maintained as described by ATCC. […] MiaPaca2 cells were either untreated or pre-treated with IT-139 (100 μM) and co-cultured with IL-2 activated PBMCs at varying doses. PBMCs were activated using 6000 IU of IL-2 for 24 h.

Grp78 promoter = test: ChIP assay, Polymerase II binding to Grp78 promoter in HCT116 cells (Example 5); format: cell-based, human; settings: 200 μM IT-139, 16 hours
Procedure: (§2) Example 5. Chromatin immunoprecipitation (ChIP) assay was performed to examine Polymerase II binding to Pol II and GRP78 promoter regions in stressed and unstressed cells with IT-139 treatment. HCT116 cells were grown to 80% confluence then treated with 1.5 μg/mL tunicamycin and 200 μM IT-139 or DMSO for 16 hours. Chromatin was cross-linked using formaldehyde. Cells were harvested with trypsin and isolated nuclei were sonicated to yield fragments between 200-1000 bp. Equal amounts of chromatin were incubated with anti-Pol II antibody overnight then pulled down with Staph A cells. Cross-linking was reversed and the DNA was purified using a GeneElute PCR cleanup kit from Sigma. Purified DNA and input samples were subjected to 30 cycles of PCR with primers amplifying promoter regions of Grp78 and Pol II. The products were run on a 4% agarose gel and visualized with ethidium bromide staining. […] Strikingly, IT-139 dropped Polymerase II binding to the Grp78 promoter to zero in both non-stressed and Tu-stressed cells.

tumor types = test: Preclinical anti-tumor and combination studies
HCT116 cells = test: Electron microscopic evaluation of HCT116 cells (Example 4); format: cell-based, human; settings: IT-139 200 μM, 24 hours, versus untreated cells
Procedure: Example 4. HCT116 cell line was seeded one day prior to treatment according to ATCC guidelines. 24 hours after treatment with IT-139 (200 μM), treated and untreated cells were fixed for electron microscopic evaluation.

Pol II promoter = test: ChIP assay, Polymerase II binding to Pol II promoter in HCT116 cells (Example 5); format: cell-based, human; settings: 200 μM IT-139, 16 hours
Procedure: as §2

[8] = tested on: GRP78 promoter fragment (−169 to −29; contains 3 ERSEs); test: GRP78 promoter fragment luciferase reporter; format: cell-based
A549 = test: Mitochondrial potential, JC-1 flow cytometry, A549 (Example 9); format: cell-based, human; settings: lung (A549), 30-200 uM IT-139, 24 h
Procedure: as §1

HT29 = test: Mitochondrial potential, JC-1 flow cytometry, HT29 (Example 9); format: cell-based, human; settings: HT29, 30 μM IT-139, 24 h
Procedure: as §1

GRP78 [9] = test: GRP78 levels by western blot in normal embryonic kidney 293T cells (Example 7); format: cell-based, human
Procedure: Example 7. Normal human embryonic kidney 293T cells were either non-stressed (treated with normal media) or stressed (treated with 300 nM EndRet stress & GRP78 inducer Thapsigargin). Cell cultures were either treated with no drug (control) or 200 μM IT-139. GRP78 levels assayed by western blot; β-actin is loading control.

[10] = stressed cells (thapsigargin 300 nM)
[11] = Tu-stressed HCT116 cells (1.5 μg/mL tunicamycin)

[Cl][Ru-]([Cl])([Cl])[Cl].[Na+].c1ccc2[nH]ncc2c1.c1ccc2[nH]ncc2c1 [IT-139, sodium trans-[tetrachlorobis(1H-indazole)ruthenate(III)]] was tested, and the “mitochondrial potential (JC-1)” value (LNCaP) was “increase in mitochondrial depolarization at high concentrations”, the “mitochondrial potential (JC-1)” value (HCT116) was “increased loss of mitochondrial potential” and the “suppression of GRP78 at the transcriptional level (Northern blot, normalized against β-actin)” value (GRP78 mRNA [1]) was “dose dependent manner”. The cell viability [2] was “did not show any effect upon cell viability”, the “effect of order of dosing with thapsigargin (Tg) on GRP78 expression” value (GRP78 [3]) was “affects levels of GRP78 expression” and the “GRP78 immunostaining of tumors” value (GRP78 [4]) was “very weak staining”. For the same molecule, the “effect on other arms of the UPR (induction XBP-1 spliced form; induction, processing and nuclear import of ATF6; phosphorylation of eIF2a)” value [5] was “does not block other arms of the UPR”, the “mitochondrial potential (JC-1)” value (A375) was “increase in mitochondrial depolarization at high concentrations” and the “anti-tumor activity (tumor volume)” value (CT26 cells) was “demonstrated anti-tumor activity”. For the same molecule, the “effect on GRP78 protein (western blot, normalized by GAPDH)” value (GRP78 [6]; [10]) was “decreased the amount of GRP78”, the “effect on GRP78 protein (western blot, normalized by GAPDH)” value (GRP78 [6]; unstressed cells) was “little to no effect” and the “effect on GRP78 mRNA expression (qRT-PCR, normalized to GAPDH)” value (GRP78 mRNA [7]; [10]) was “decreased the amount of GRP78 mRNA expression”. For the same molecule, the “effect on grp78 mRNA levels (qRT-PCR, normalized to GAPDH)” value (GRP78 mRNA [7]; unstressed cells) was “little impact”, the “cell death in MiaPaca2 cells” value (MiaPaca2 cells) was “increased cell death” and the “Polymerase II binding to the Grp78 promoter, dropped to” value (Grp78 promoter; [11]) was “zero”. The “Polymerase II binding to the Grp78 promoter, dropped to” value (Grp78 promoter; non-stressed HCT116 cells) was “zero”, the “synergy in combination with other anti-cancer drugs” value (tumor types; all different classes of anti-cancer drugs tested to date) was “marked synergy” and the “anti-tumor activity in preclinical studies” value (tumor types; including tumor types resistant to standard anti-cancer agents) was “activity against a broad range of tumor types”. The “cell morphology by electron microscopy” value (HCT116 cells) was “significant vacuolization, ER expansion and disorganization of intracellular organelles”, the “Polymerase II binding to the Pol II promoter, reduced to” value (Pol II promoter; [11]) was 40% and the “Polymerase II binding to the Pol II promoter” value (Pol II promoter; non-stressed HCT116 cells) was “minimal effect”. The “stress-induction of GRP78 promoter fragment linked to luciferase reporter gene” value [8] was “suppress stress-induction”, the “mitochondrial potential (JC-1)” value (A549) was “increase in mitochondrial depolarization at high concentrations” and the “mitochondrial potential (JC-1)” value (HT29) was “increased loss of mitochondrial potential”. For the same molecule, the “effect on basal GRP78 levels” value (GRP78 [9]; non-stressed normal cells) was “does not effect the basal GRP78 levels” and the “effect on GRP78 up-regulation due to stress” value (GRP78 [9]; stressed normal cells) was “does not effect GRP78 up-regulation due to stress”.
